Test results as given in paper PMC10587737, “Dracorhodin targeting CMPK2 attenuates inflammation: A novel approach to sepsis therapy” (Clinical and Translational Medicine, 2023).

How the values were obtained:
CMPK2 [1] = molecular target: T1, CMPK2 (Homo sapiens, UniProt Q5EBM0); test: CMPK2 kinase activity assay (ADP-GLO); type: biochemical; conditions: ligand concentration 10 μM, luminescence; for inhibition at 10 µM: read-out: CMPK2 inhibition
T1 sequence (Q5EBM0 22-449): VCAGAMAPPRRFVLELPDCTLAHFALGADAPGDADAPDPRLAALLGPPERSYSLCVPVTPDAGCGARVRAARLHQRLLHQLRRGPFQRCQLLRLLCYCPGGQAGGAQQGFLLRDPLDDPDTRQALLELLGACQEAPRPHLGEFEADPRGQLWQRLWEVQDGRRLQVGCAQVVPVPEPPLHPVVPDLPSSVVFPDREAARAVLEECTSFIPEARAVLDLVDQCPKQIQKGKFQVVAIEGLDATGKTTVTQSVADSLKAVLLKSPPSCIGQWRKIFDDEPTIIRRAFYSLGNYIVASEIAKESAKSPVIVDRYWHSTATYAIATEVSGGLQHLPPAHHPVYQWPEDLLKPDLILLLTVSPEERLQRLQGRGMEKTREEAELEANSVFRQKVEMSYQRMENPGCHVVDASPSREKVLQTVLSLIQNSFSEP
Description: The range of concentrations used to investigate the effect of small‐molecule ligands on CMPK2 activity was 0.1–150 μM. Each data point contains three biological replicates.
CMPK2 activity was measured by the ADP‐GLO kinase assay according to the guidelines specified in the manufacturer's instructions. In the activity assay, the amount of ADP formed in the CMPK2 reaction was equal to the ATP consumption and proportional to the increase in luminescence generated in the luciferase reaction, which is the experimental principle shown in Figure 1I.

CMPK2 [2] = molecular target: T1, CMPK2; test: Ultrafiltration-affinity mass spectrometry screening (FC, CMPK2 vs BSA); type: binding; design: the N‐terminus was truncated by 22 amino acids; 6xHis (C); made in house; host or cells: FreeStyle 293-F cells (pTT5 vector); conditions: ratio of MS response CMPK2 vs BSA; for FC Positive: positive ion mode; for FC Negative: negative ion mode
Description: The purified kinase CMPK2 was incubated with the six cocktails for 30 min at 37°C in a suitable buffer solution. In the compound cocktail, each compound concentration was 1 μM, and the concentration of the kinase CMPK2 was set at 5 μM. Each of the above incubation solutions was added to a 0.5 mL 10 kDa ultrafiltration tube (Amicon μltra‐0.5 10K Centrifugal Filter Devices, Millipore), and four experimental replicates were conducted for each CMPK2 and BSA pair. The 10 kDa ultrafiltration tube was centrifuged with the incubation solution at 13 000 × g for 20 min at 4°C. Centrifugation was stopped when the solution volume was approximately 100 μL, and then the mixture was washed five times with cold ammonium acetate (150 mM, pH 7.5). For affinity selection, 100 μL of the mixture was transferred after centrifugation and rinsed into a new eppendorf tube. […] The protein precipitate was discarded and the liquid was concentrated with a N2 stream. The residue was re‐dissolved in 50% methanol before injection. BSA samples were processed in a manner parallel to that of CMPK2 samples.
Sample measurement was detected by using an UHPLC instrument (Shimadzu) combined with a Triple TOF 5600^+ MS (SCIEX). Chromatographic separation was conducted with an Acquity UPLC BEH C18 column (1.7 μm, 2.1 × 100 mm, Waters) at a temperature maintained at 40°C and a flow rate of 0.3 mL/min, with mobile phases of water–0.1% formic acid (A) and acetonitrile (B). The linear gradient elution profile was as follows: 0−2 min, 5% B; 2−12 min, 5−30% B; 12−25 min, 30−90% B; 25−30 min, 90% B; and re‐equilibration for 5 min. Subsequently, the gradient was recovered to the initial conditions at the final 1 min. Whether it was a test sample or a quality control (QC) sample, each injection volume was 5 μL.
Briefly, the chromatographic peaks of each bound ligand were extracted using PeakView with identification criteria of precise mass measurement deviation and retention time tolerance of 5 ppm and 0.1 min, respectively. The MS response of each ligand was represented with the integrated peak area extracted by the corresponding extract ion chromatogram. The effective hits were selected on the basis of fold change (FC) value ≥ 2, p value < .05 and cyclic voltammetry (CV) ≤ 30% and were identified as candidate ligands of CMPK2. By extracting the m/z of individual standards from the acquired MS/MS spectrum, the decimal point of RT was used to distinguish the ambiguous compound peaks in the cocktails.
The experimental samples were injected into a UHPLC‐Q‐TOF‐MS system. First, total ion chromatograms (TIC) reflected the general overview of all samples (Supporting Information Figure S2A). […] Among the groups, each sample with a CV more than 30% was considered an abnormal sample and was not considered in the subsequent statistical analysis. In addition, the p value of each sample between the groups was calculated by MetaboAnalyst 5.0, and the significance of differences was determined. In the ultrafiltration‐affinity mass spectrometry profiling, we calculated FC, which is defined as the ratio of the MS response between the compound detected in the CMPK2 and BSA incubation system (Supporting Information Figure S2C,D). […] To select small‐molecule ligands with strong affinity, we determined the screening criteria to be FC ≥ 2. Affinity MS analysis generated a set of raw data, and the compounds that met the pre‐judgment criteria (FC ≥ 2, p < .05) were selected as compound hits (Supporting Information Figure S2).

| inhibition at 10 µM (CMPK2 [1]) [%] | FC Positive (CMPK2 [2]) | FC value (CMPK2 [2]; Figure S3A) | Structure (SMILES) | FC Negative (CMPK2 [2]) | CMPK2 inhibition (CMPK2 [1]) |
| --- | --- | --- | --- | --- | --- |
| > 50 | 3.13 |  | COc1ccc2ccc(=O)oc2c1 [compound 792, 7-methoxy coumarin] |  |  |
| > 50 | 4.74 |  | O=c1c(O[C@@H]2O[C@H](CO)[C@H](O)[C@H](O)[C@H]2O)c(-c2ccc(O)c(O)c2)oc2cc(O)cc(O)c12 [compound 400, Hyperoside] | 6.41 |  |
|  |  |  | CC(C)=CCCC(C)(O)[C@H]1CC[C@]2(C)[C@@H]1[C@H](O)C[C@@H]1[C@@]3(C)CC[C@H](O)C(C)(C)[C@@H]3CC[C@]12C (stereo in doubt) [compound 368, Protopanaxadiol] | 3.70 | more than 50% |
|  | 1.17 | 1.9 | O=c1ccn([C@H]2C[C@H](O)[C@@H](COP(=O)(O)O)O2)c(=O)[nH]1 [dUMP, reference compound] |  |  |
